According to ChEMBL document CHEMBL1201862, “PubChem BioAssay data set” (2004):
Active and inactive are the calls of the source.

Legend:
[1] = target: Protein disulfide-isomerase A6 (Homo sapiens, UniProt Q15084); assay: reduced insulin turbidity driven by ERp5 (PDIA6) – biochemical, absorbance 650 nm, cherry-picked samples, dose response (AID 720566)
[2] = system: INS1; assay: INS-1E survival protection against cytokine death – cell-based, luminescence, retest, dose response (AID 449756); type: functional; conditions: Rattus norvegicus;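 note: cell death triggered by IL-1 beta plus TNF-alpha plus IFN-gamma mixture; protective hits raise ATP signal compared with cytokine alone wells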
[3] = target: T1, Photoreceptor-specific nuclear receptor (Homo sapiens, UniProt Q9Y5X4); type: functional
T1 sequence (Q9Y5X4 whole entry): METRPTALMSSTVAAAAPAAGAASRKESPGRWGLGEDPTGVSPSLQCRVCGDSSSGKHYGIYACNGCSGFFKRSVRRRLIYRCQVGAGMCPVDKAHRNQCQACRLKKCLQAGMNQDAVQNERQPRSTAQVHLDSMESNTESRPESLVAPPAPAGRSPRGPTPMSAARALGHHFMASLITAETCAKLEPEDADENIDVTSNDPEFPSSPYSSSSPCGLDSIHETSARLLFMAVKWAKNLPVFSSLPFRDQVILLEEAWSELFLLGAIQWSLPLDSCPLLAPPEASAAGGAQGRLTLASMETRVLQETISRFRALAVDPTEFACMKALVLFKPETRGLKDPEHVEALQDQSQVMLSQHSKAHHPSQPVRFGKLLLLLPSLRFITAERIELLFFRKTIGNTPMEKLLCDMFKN

[4] = target: 1-phosphatidylinositol 4,5-bisphosphate phosphodiesterase beta-3 (Homo sapiens, UniProt Q01970); assay: Fluorescence-based biochemical high throughput dose response assay to identify inhibitors of phospholipase C isozymes (PLC-B3).
1-phosphatidylinositol 4,5-bisphosphate phosphodiesterase beta-3, sequence (Q01970 whole entry): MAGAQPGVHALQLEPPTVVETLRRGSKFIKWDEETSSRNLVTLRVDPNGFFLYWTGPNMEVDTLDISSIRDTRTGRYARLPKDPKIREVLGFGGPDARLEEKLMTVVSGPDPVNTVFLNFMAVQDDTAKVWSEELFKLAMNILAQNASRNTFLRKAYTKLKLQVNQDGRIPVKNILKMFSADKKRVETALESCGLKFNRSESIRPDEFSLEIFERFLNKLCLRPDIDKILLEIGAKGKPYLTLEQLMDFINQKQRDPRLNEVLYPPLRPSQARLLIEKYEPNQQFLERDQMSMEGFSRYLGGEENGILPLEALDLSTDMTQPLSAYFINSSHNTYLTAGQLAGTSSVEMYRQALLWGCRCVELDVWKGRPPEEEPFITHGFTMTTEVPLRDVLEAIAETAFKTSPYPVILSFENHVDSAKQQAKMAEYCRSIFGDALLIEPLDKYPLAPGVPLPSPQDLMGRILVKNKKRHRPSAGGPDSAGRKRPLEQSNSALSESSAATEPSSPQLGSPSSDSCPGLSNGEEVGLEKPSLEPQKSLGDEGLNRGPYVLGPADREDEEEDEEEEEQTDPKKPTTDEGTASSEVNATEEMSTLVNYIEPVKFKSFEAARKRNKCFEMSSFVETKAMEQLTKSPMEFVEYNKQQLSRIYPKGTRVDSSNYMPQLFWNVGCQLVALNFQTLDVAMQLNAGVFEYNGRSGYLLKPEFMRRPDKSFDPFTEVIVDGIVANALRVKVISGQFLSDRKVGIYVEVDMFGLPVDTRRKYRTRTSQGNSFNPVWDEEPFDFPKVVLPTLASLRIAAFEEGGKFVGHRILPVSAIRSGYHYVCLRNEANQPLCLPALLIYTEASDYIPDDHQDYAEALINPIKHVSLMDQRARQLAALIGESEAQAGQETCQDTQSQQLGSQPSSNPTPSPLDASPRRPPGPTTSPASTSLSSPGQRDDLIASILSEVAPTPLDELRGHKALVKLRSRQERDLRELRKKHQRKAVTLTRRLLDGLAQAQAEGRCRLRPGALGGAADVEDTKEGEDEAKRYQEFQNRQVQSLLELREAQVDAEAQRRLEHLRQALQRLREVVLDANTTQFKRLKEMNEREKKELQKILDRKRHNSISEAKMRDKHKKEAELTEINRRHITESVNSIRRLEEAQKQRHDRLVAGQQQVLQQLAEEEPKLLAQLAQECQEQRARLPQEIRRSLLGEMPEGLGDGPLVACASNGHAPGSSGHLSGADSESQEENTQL

[5] = Trypanosoma cruzi growth suppression in host cells – NIH3T3 host cells, beta-gal luminescence, confirmation (AID 2044); type: functional, cell-based;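 note: intracellular parasites grown in NIH/3T3 mouse fibroblasts as host cells; luminescent beta-galactosidase reporter signal from transgenic T. cruzi replicating inside host cells; inhibitors lower the luminescence signal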
[6] = target: T2, Dual specificity protein phosphatase 3 (Homo sapiens, UniProt P51452); assay: SAR VHR1 absorbance Assay for In Vitro dose response studies. [Related pubchem assays (depositor defined):AID1654, AID1661, AID1878, AID1992, AID2004]
T2 sequence (P51452 whole entry): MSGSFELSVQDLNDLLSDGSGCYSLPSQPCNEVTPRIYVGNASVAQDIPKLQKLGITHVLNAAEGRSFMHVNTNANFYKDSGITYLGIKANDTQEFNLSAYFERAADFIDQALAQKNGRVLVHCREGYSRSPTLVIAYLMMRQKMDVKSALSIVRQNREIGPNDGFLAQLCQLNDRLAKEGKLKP

[7] = target: ORF 73 (Human herpesvirus 8, UniProt O40947); assay: KSHV LANA DNA-binding disruption – biochemical, fluorescence polarization, cherry-picked samples, dose response (AID 504725); parameters: species or system Human gammaherpesvirus 8;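 note: fluorescence polarization of a labeled DNA duplex reporting LANA DNA binding; potency is for inhibitors that block LANA binding to the DNA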
ORF 73, sequence (O40947 whole entry): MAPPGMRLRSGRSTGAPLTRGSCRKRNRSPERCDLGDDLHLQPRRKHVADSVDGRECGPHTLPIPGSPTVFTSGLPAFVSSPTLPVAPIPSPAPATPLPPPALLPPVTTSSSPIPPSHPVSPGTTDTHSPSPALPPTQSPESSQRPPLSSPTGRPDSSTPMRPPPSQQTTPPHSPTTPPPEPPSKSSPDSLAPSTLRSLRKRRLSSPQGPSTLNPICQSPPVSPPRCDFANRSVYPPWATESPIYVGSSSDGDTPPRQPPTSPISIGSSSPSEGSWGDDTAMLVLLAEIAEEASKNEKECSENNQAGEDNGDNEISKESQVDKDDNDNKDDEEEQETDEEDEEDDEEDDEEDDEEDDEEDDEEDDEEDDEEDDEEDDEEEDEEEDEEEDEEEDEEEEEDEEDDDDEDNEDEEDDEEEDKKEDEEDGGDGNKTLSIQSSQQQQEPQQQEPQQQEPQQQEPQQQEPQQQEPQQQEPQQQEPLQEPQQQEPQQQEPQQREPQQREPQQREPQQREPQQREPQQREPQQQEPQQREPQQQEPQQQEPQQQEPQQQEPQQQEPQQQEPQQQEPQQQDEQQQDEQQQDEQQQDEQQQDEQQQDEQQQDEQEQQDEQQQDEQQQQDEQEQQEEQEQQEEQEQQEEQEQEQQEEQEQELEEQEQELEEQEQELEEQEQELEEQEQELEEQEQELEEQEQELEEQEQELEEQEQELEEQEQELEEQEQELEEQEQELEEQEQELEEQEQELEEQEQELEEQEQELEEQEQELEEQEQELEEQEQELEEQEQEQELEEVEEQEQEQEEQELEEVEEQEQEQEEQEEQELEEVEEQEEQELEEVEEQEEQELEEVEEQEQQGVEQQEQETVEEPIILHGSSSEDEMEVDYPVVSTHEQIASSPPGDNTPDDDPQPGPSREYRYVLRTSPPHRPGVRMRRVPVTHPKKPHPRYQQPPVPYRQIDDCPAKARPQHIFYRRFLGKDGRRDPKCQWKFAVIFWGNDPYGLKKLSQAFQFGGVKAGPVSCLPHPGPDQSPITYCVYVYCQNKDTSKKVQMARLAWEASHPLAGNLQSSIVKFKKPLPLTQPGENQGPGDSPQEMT

[8] = target: Small ubiquitin-related modifier 2 (Homo sapiens, UniProt P61956); assay: disruption of SUMO2 interaction with SIM peptide – biochemical, fluorescence polarization, uHTS hits, selectivity assay for SUMO1 interaction inhibitor project, dose response (AID 624385); type: functional; conditions: read-out: IC50_Mean
Small ubiquitin-related modifier 2, sequence (P61956 whole entry): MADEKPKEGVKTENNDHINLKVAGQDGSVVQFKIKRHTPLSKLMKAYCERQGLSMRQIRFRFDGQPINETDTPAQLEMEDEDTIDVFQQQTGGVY

[9] = target: Guanyl-specific ribonuclease T1 (Aspergillus oryzae (strain ATCC 42149 / RIB 40), UniProt P00651); assay: inhibition of ribonuclease T1 activity – biochemical, fluorescence polarization, 1536-well, counter-screen for TPT1 inhibitor project, dose response (AID 2167)
Guanyl-specific ribonuclease T1, sequence (P00651 whole entry): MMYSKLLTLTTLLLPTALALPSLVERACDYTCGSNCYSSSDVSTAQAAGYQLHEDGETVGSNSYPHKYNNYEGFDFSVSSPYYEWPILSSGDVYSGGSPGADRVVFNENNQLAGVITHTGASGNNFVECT

[10] = target: T2, Dual specificity protein phosphatase 3; assay: SAR VHR1 Fluorescent Assay for In Vitro dose response studies. [Related pubchem assays (depositor defined):AID1654, AID1661, AID1878, AID1992, AID2004, AID2070, AID2085]; type: functional
[11] = target: Small ubiquitin-related modifier 1 (Homo sapiens, UniProt P63165); assay: SUMO1 protein interaction blockers, potency – biochemical, fluorescence polarization, uHTS hits, dose response (AID 624382); type: functional; conditions: read-out: IC50_Mean
Small ubiquitin-related modifier 1, sequence (P63165 whole entry): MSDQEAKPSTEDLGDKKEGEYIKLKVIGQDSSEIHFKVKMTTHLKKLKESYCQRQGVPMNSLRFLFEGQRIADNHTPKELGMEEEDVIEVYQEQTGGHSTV

[12] = target: T2, Dual specificity protein phosphatase 3; assay: VHR1 phosphatase inhibitors, primary screen, biochemical, absorbance, uHTS (AID 1654)
[13] = target: Prothrombin (Bos taurus, UniProt P00735); assay: thrombin protease inhibitors – biochemical, fluorescence polarization, uHTS hits, dose response (AID 602369); type: functional
[14] = target: T3, Alkaline phosphatase, tissue-nonspecific isozyme (Homo sapiens, UniProt P05186); assay: activation of tissue-nonspecific alkaline phosphatase – biochemical, TNAP isozyme, mouse IAP uHTS hits, selectivity assay for mouse IAP activator project, dose response (AID 488880); type: functional
T3 sequence (P05186 whole entry): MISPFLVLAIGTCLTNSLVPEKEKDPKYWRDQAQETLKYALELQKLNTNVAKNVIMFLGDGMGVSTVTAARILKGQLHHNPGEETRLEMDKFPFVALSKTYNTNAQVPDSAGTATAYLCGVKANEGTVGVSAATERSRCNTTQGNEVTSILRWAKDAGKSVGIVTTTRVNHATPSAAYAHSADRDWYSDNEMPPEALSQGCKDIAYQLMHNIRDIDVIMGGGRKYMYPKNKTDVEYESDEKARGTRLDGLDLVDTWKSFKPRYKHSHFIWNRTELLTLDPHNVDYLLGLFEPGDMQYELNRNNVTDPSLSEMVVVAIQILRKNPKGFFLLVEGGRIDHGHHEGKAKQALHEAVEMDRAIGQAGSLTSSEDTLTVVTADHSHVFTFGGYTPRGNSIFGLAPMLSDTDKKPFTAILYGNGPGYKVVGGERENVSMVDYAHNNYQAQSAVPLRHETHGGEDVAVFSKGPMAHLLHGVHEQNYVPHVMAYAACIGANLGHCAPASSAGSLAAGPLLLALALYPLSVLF

[15] = Luminescence Cell-Based Dose Response HTS to Identify Inhibitors of 5'UTR Stem-Loop Driven Prion Protein mRNA Translation in H4 Neuroglioblastoma Cells. [Related pubchem assays: 1827 (Project Summary), 1813 (Primary HTS)]; type: functional
[16] = system: Streptococcus; assay: GAS UMAA2166 growth inhibition – luminescence, BacTiterGlo, counter-screen for streptokinase expression inhibitor project, dose response (AID 1915); type: functional, organism-based;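 note: potency for reduction of bacterial viability or growth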
[17] = target: T1, Photoreceptor-specific nuclear receptor; type: functional, cell-based
[18] = target: T4, Sentrin-specific protease 8 (Homo sapiens, UniProt Q96LD8); type: functional;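 note: kinetic enzyme assay of SENP8 cleaving a Nedd8 protein substrate, dose-response confirmation of screening hits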
T4 sequence (Q96LD8 whole entry): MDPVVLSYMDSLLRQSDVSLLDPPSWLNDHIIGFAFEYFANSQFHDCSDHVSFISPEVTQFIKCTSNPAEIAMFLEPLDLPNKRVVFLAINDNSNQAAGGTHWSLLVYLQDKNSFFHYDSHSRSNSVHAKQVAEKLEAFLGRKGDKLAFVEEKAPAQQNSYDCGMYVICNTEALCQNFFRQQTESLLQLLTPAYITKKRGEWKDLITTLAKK

[19] = target: T5, Tyrosine-protein phosphatase non-receptor type 22 (Homo sapiens, UniProt Q9Y2R2); type: functional;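 note: confirmatory dose-response retesting of primary uHTS hits against LYP; potency is for inhibition of phosphatase activity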
T5 sequence (Q9Y2R2 whole entry): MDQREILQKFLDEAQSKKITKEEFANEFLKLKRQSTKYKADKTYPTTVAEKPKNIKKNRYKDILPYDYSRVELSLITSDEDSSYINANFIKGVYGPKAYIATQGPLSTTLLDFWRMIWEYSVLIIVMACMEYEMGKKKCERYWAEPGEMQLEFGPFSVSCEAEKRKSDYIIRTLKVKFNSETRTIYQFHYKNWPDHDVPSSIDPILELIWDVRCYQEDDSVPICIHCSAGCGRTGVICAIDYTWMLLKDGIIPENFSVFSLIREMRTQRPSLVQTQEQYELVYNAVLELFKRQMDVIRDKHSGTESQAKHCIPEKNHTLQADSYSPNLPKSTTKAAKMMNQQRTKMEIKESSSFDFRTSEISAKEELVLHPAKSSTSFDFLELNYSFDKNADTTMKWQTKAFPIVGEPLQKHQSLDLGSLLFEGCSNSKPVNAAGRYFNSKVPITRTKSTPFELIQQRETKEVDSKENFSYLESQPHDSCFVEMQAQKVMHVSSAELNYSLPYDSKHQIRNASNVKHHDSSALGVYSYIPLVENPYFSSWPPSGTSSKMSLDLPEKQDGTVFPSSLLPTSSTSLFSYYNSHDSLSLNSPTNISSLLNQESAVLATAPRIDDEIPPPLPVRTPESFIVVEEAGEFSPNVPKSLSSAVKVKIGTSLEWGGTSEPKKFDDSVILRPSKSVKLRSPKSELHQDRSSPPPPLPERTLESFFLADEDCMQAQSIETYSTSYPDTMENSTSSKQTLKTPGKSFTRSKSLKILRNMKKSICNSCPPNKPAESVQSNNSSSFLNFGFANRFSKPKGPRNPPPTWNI

Protein disulfide-isomerase A6, sequence (Q15084 whole entry): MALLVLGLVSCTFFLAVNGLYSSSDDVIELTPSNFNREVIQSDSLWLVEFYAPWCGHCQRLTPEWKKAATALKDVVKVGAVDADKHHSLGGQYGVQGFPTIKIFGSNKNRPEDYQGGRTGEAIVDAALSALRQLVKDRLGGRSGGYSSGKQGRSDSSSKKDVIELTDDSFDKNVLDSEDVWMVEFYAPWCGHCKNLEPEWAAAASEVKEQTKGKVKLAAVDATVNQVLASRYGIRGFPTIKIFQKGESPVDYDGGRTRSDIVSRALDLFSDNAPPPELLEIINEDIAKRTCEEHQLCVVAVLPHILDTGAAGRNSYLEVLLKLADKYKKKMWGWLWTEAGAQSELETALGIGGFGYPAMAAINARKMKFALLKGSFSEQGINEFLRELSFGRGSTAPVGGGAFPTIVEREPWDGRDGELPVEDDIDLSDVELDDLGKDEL

## COC(=O)c1cc(C)nc2c1C(=O)C(=O)C=C2N1CCOCC1
[1]
  AC50: 45.1 µM (active)
[2]
  AC50: 2.71 µM (active)
[3]
  IC50: > 39.8 µM (not active)
[4]
  IC50: > 123 µM (inactive)
[5]
  EC50: 2.34 µM (active)

## NS(=O)(=O)c1cc(C(=O)NC2CCSc3ccccc32)ccc1Cl (centres undefined)
[6]
  IC50: 0.121 µM (active)
[7]
  AC50: 10.1 µM (active)
[8]
  IC50: 6.65 µM (active)
[9]
  IC50: > 55.7 µM (not active)
[10]
  IC50: 0.065 µM (active)
[11]
  IC50: 4.11 µM (active)
[12]
  IC50: < 1.23 µM (inactive)
[13]
  IC50: 24.5 µM (active)
[14]
  EC50: 68.1 µM (active)

## O=C1c2ccccc2C(=O)c2[nH]c(O)nc21
[15]
  EC50: 8.19 µM (active)
[16]
  EC50: > 150 µM (not active)
[17]
  IC50: 4.48 µM (active)

## CCOC(=O)C1=C(C)OC2(O)c3ccccc3C(=O)C12O (centres undefined)
[18]
  IC50: 0.284 µM (active)

## N#Cc1c(N2CCCC2)nc(N)c2c(N)nc(N3CCCC3)cc12
[19]
  IC50: > 79.4 µM (inactive)
